1 compound from patent US7101872B2, “Farnesyl dibenzodiazepinone, and processes for its production” (Ecopia BioSciences, Inc., priority 2003, dated 2006) can be followed below.

What all share (test): NCI panel SRB growth inhibition
Holding throughout (format): cell-based

Assay [1] deals with SNB-75. The following applies: Homo sapiens, SNB-75, CNS, 48 h. The procedure:
(§1) The operation of this unique screen utilizes […] different human tumor cell lines, representing leukemia, melanoma and cancers of the lung, colon, brain, ovary, breast, prostate, and kidney.
(§2) Culture conditions and plating: The human tumor cell lines of the cancer-screening panel were grown in RPMI 1640 medium containing 5% fetal bovine serum and 2 mM L-glutamine. For a typical screening experiment, cells were inoculated into 96 well microtiter plates in 100 μL at plating densities ranging from 5,000 to 40,000 cells/well depending on the doubling time of individual cell lines (Table 5). After cell inoculation, the microtiter plates were incubated at 37° C., 5% CO2, 95% air and 100% relative humidity for 24 h prior to addition of experimental drugs. After 24 h, two plates of each cell line were fixed in situ with TCA, to represent a measurement of the cell population for each cell line at the time of drug addition (Tz). Evaluation of inhibitory activity on cell proliferation: ECO-04601 was provided as a lyophilized powder with an estimated purity of 90+%. The compound was stored at −20° C. until day of use. ECO-04601 was solubilized in dimethyl sulfoxide at 400-fold the desired final maximum test concentration. At the time of drug addition, an aliquot of frozen concentrate was thawed and diluted to twice the desired final maximum test concentration with complete medium containing 50 μg/mL gentamicin. Additional four, 10-fold or Y2 log serial dilutions were made to provide a total of five drug concentrations plus control. Aliquots of 100 μl of these different drug dilutions were added to the appropriate microtiter wells already containing 100 μl of medium, resulting in the required final drug concentrations (8.0×10^−5 M to 8.0×10^−9 M).
(§3) Following drug addition, the plates were incubated for an additional 48 h at 37° C., 5% CO2, 95% air, and 100% relative humidity. For adherent cells, the assay was terminated by the addition of cold TCA. Cells were fixed in situ by the gentle addition of 50 μl of cold 50% (w/v) TCA (final concentration, 10% TCA) and incubated for 60 minutes at 4° C. Supernatants were discarded, and the plates were washed five times with tap water and air-dried. Sulforhodamine B (SRB) solution (100 μl) at 0.4% (w/v) in 1% acetic acid was added to each well, and plates were incubated for 10 minutes at room temperature. After staining, unbound dye was removed by washing five times with 1% acetic acid and the plates were air-dried. Bound stain was subsequently solubilized with 10 mM trizma base, and the absorbance was read on an automated plate reader at a wavelength of 515 nm. For suspension cells, the methodology was the same except that the assay was terminated by fixing settled cells at the bottom of the wells by gently adding 50 μl of 80% TCA (final concentration, 16% TCA).
(§4) The growth inhibitory activity of ECO-04601 was measured by NCI utilizing the GI50 value, rather than the classical IC50 value.

The test system of assay [2] is SN12C. The following applies: Homo sapiens, Renal, 48 h. The procedure:
as §1, §2, §3, §4

For assay [3], the system named is CAKI-1. The following applies: Homo sapiens, CAKI-1, Renal, 48 h. The procedure: as §1, §2, §3, §4
The test system of assay [4] is CCRF-CEM. Conditions: Homo sapiens, Leukemia, 48 h. On the procedure:
as §1, §2, §3, §4

Assay [5] concerns SK-MEL-5. Conditions: Homo sapiens, SK-MEL-5, Melanoma, 48 h. The procedure: as §1, §2, §3, §4
Assay [6] concerns M14. The following applies: Homo sapiens, M14, Melanoma, 48 h. On the procedure:
as §1, §2, §3, §4

Assay [7] relates to RXF 393. The following applies: Homo sapiens, RXF 393, Renal, 48 h. On the procedure: as §1, §2, §3, §4
In assay [8] the test system is HS 578T. Conditions: Homo sapiens, Breast, 48 h. The procedure:
as §1, §2, §3, §4

Assay [9] concerns ACHN. The following applies: Homo sapiens, Renal, 48 h. On the procedure: as §1, §2, §3, §4
Assay [10] has as its system NCI-H522. The following applies: Homo sapiens, NCI-H522, Non-Small Cell Lung, 48 h. On the procedure:
as §1, §2, §3, §4

For assay [11], the system named is LOX IMVI. Conditions: Homo sapiens, Melanoma, 48 h. The procedure:
as §1, §2, §3, §4

Assay [12] relates to SK-MEL-2. Conditions: Homo sapiens, SK-MEL-2, Melanoma, 48 h. The procedure:
as §1, §2, §3, §4

Assay [13] has as its system MCF7. The following applies: Homo sapiens, MCF7, Breast, 48 h. The procedure:
as §1, §2, §3, §4

For assay [14], the system named is MDA-MB-231/ATCC. Conditions: Homo sapiens, Breast, 48 h. The procedure:
as §1, §2, §3, §4

For assay [15], the system named is DU-145. The following applies: Homo sapiens, DU-145, Prostate, 48 h. The procedure:
as §1, §2, §3, §4

The subject of assay [16] is COLO 205. Conditions: Homo sapiens, COLO 205, Colon, 48 h. The procedure: as §1, §2, §3, §4
Assay [17] relates to OVCAR-4. The following applies: Homo sapiens, OVCAR-4, Ovarian, 48 h. The procedure: as §1, §2, §3, §4

Consider `CC(C)=CCC/C(C)=C/CC/C(C)=C/CN1C(=O)c2cccc(O)c2Nc2c(O)cc(O)cc21` [ECO-04601, 10-farnesyl-4,6,8-trihydroxy-dibenzodiazepin-11-one], for which the GI50 in assay [1] worked out at 7.71 µM; in [2], 3.85 µM; in assay [3] it was 15.2 µM; in [4] it was 1.08 µM; in assay [5], 7.8 µM; in [6], 4.57 µM. The GI50 came to 7.71 µM in assay [7]; 2.76 µM in assay [8]; 3.1 µM in [9]; 3.44 µM in [10]; 4.53 µM in assay [11]; 25 µM in assay [12]. Also, the GI50 in assay [13] was 10.1 µM; in assay [14] it was 2.72 µM; in [15], 3.56 µM; in [16] it was 12.7 µM; in assay [17], 9.67 µM.

A word on the GI50: it is the concentration giving 50% growth inhibition. A low value points to more potent growth inhibition.
